Assay results: paper PMC11876601 (Molecular Systems Biology, 2025)
Read-outs that look alike come from different tables or passages of the source.

Tested on: Suit2-07 cells
Assay: Cell proliferation assay, GEM + ATR inhibitor (Incucyte confluence, 72 h);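 further: Suit2-07 cells grown in 96-well plates at 37 °C, 5% CO2, raw 72 h confluence taken without normalizing to starting confluence, each experiment done in triplicate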
Format: cell-based, human
Settings: Suit2-07; for EC50: Homo sapiens, 72 h; for Ratio: Response to Response vehicle (mean); for Ratio / Response: R1; for Curve bottom / Curve top: plateau of fitted curve, ratio drug/vehicle confluence
[1] = GEM+ATRi_dose3, GEM 30 nM + ATRi 30 nM
[2] = experiment ATRi (ATR inhibitor alone)

Protocol: Cells were seeded at 5000 cells/well into 96-well flat bottom plates (Eppendorf) and allowed to attach overnight. […] Cells were incubated for 72 h at 37 °C and 5% CO2. Cell confluence readouts at 72 h were either normalized to their initial confluence using the Incucyte software (AsPC-1) or used without prior normalization (all others). […] Each experiment was performed in triplicates, the data was plotted as mean ± standard deviation (s.d.).

Compound: Nc1nn2cc(F)cnc2c1C(=O)Nc1cncc(F)c1N1CCC(C(=O)N2CCN(C3COC3)CC2)CC1 [Gartisertib]
- EC50 (experiment ATRi (ATR inhibitor alone), -log10 of EC50 [M], read-out: pEC50 (converted)): 3.39e-07 M
- EC50 (experiment ATRi (ATR inhibitor alone), mean (one replicate), read-out: EC50 mean): 3.39e-07 M
- EC50 (experiment ATRi (ATR inhibitor alone), replicate R1, read-out: EC50): 3.39e-07 M
- Ratio (GEM+ATRi_dose1, GEM 0 nM + ATRi 10 nM): 1.02
- Ratio (GEM+ATRi_dose1, GEM 1 nM + ATRi 10 nM): 1.01
- Ratio (GEM+ATRi_dose1, GEM 3 nM + ATRi 10 nM): 0.93
- Ratio (GEM+ATRi_dose1, GEM 10 nM + ATRi 10 nM): 0.23
- Ratio (GEM+ATRi_dose1, GEM 30 nM + ATRi 10 nM): 0.15
- Ratio (GEM+ATRi_dose1, GEM 100 nM + ATRi 10 nM): 0.15
- Ratio (GEM+ATRi_dose1, GEM 300 nM + ATRi 10 nM): 0.12
- Ratio (GEM+ATRi_dose1, GEM 1000 nM + ATRi 10 nM): 0.11
- Ratio (GEM+ATRi_dose1, GEM 3000 nM + ATRi 10 nM): 0.09
- Ratio (GEM+ATRi_dose2, GEM 0 nM + ATRi 3 nM): 0.98
- Ratio (GEM+ATRi_dose2, GEM 1 nM + ATRi 3 nM): 0.98
- Ratio (GEM+ATRi_dose2, GEM 3 nM + ATRi 3 nM): 0.26
- Ratio (GEM+ATRi_dose2, GEM 10 nM + ATRi 3 nM): 0.16
- Ratio (GEM+ATRi_dose2, GEM 30 nM + ATRi 3 nM): 0.13
- Ratio (GEM+ATRi_dose2, GEM 100 nM + ATRi 3 nM): 0.13
- Ratio (GEM+ATRi_dose2, GEM 300 nM + ATRi 3 nM): 0.11
- Ratio (GEM+ATRi_dose2, GEM 1000 nM + ATRi 3 nM): 0.11
- Ratio (GEM+ATRi_dose2, GEM 3000 nM + ATRi 3 nM): 0.09
- Ratio (GEM+ATRi_dose3, GEM 0 nM + ATRi 30 nM): 0.97
- Ratio (GEM+ATRi_dose3, GEM 1 nM + ATRi 30 nM): 0.93
- Ratio (GEM+ATRi_dose3, GEM 3 nM + ATRi 30 nM): 0.37
- Ratio (GEM+ATRi_dose3, GEM 10 nM + ATRi 30 nM): 0.18
- Ratio [1]: 0.14
- Ratio (GEM+ATRi_dose3, GEM 100 nM + ATRi 30 nM): 0.13
- Ratio (GEM+ATRi_dose3, GEM 300 nM + ATRi 30 nM): 0.12
- Ratio (GEM+ATRi_dose3, GEM 1000 nM + ATRi 30 nM): 0.13
- Ratio (GEM+ATRi_dose3, GEM 3000 nM + ATRi 30 nM): 0.08
- Ratio (experiment ATRi, ATRi 3 nM, GEM 0 nM): 1.02
- Ratio (experiment ATRi, ATRi 10 nM, GEM 0 nM): 1.01
- Ratio (experiment ATRi, ATRi 30 nM, GEM 0 nM): 0.98
- Ratio (experiment ATRi, ATRi 100 nM, GEM 0 nM): 0.96
- Ratio (experiment ATRi, ATRi 300 nM, GEM 0 nM): 0.63
- Ratio (experiment ATRi, ATRi 1000 nM, GEM 0 nM): 0.22
- Ratio (experiment ATRi, ATRi 3000 nM, GEM 0 nM): 0.19
- Ratio (experiment ATRi, ATRi 10000 nM, GEM 0 nM): 0.12
- Response (GEM+ATRi_dose1, GEM 0 nM + ATRi 10 nM, in % (unit assumed)): 99.22
- Response (GEM+ATRi_dose1, GEM 1 nM + ATRi 10 nM, in % (unit assumed)): 98.36
- Response (GEM+ATRi_dose1, GEM 3 nM + ATRi 10 nM, in % (unit assumed)): 90.74
- Response (GEM+ATRi_dose1, GEM 10 nM + ATRi 10 nM, in % (unit assumed)): 21.98
- Response (GEM+ATRi_dose1, GEM 30 nM + ATRi 10 nM, in % (unit assumed)): 14.67
- Response (GEM+ATRi_dose1, GEM 100 nM + ATRi 10 nM, in % (unit assumed)): 14.71
- Response (GEM+ATRi_dose1, GEM 300 nM + ATRi 10 nM, in % (unit assumed)): 11.45
- Response (GEM+ATRi_dose1, GEM 1000 nM + ATRi 10 nM, in % (unit assumed)): 10.53
- Response (GEM+ATRi_dose1, GEM 3000 nM + ATRi 10 nM, in % (unit assumed)): 8.70
- Response (GEM+ATRi_dose2, GEM 0 nM + ATRi 3 nM, in % (unit assumed)): 95.38
- Response (GEM+ATRi_dose2, GEM 1 nM + ATRi 3 nM, in % (unit assumed)): 96.21
- Response (GEM+ATRi_dose2, GEM 3 nM + ATRi 3 nM, in % (unit assumed)): 25.36
- Response (GEM+ATRi_dose2, GEM 10 nM + ATRi 3 nM, in % (unit assumed)): 15.98
- Response (GEM+ATRi_dose2, GEM 30 nM + ATRi 3 nM, in % (unit assumed)): 13.06
- Response (GEM+ATRi_dose2, GEM 100 nM + ATRi 3 nM, in % (unit assumed)): 13.09
- Response (GEM+ATRi_dose2, GEM 300 nM + ATRi 3 nM, in % (unit assumed)): 10.34
- Response (GEM+ATRi_dose2, GEM 1000 nM + ATRi 3 nM, in % (unit assumed)): 10.34
- Response (GEM+ATRi_dose2, GEM 3000 nM + ATRi 3 nM, in % (unit assumed)): 9.00
- Response (GEM+ATRi_dose3, GEM 0 nM + ATRi 30 nM, in % (unit assumed)): 94.90
- Response (GEM+ATRi_dose3, GEM 1 nM + ATRi 30 nM, in % (unit assumed)): 91.25
- Response (GEM+ATRi_dose3, GEM 3 nM + ATRi 30 nM, in % (unit assumed)): 36.47
- Response (GEM+ATRi_dose3, GEM 10 nM + ATRi 30 nM, in % (unit assumed)): 17.41
- Response [1]: 13.78
- Response (GEM+ATRi_dose3, GEM 100 nM + ATRi 30 nM, in % (unit assumed)): 12.30
- Response (GEM+ATRi_dose3, GEM 300 nM + ATRi 30 nM, in % (unit assumed)): 12.12
- Response (GEM+ATRi_dose3, GEM 1000 nM + ATRi 30 nM, in % (unit assumed)): 12.34
- Response (GEM+ATRi_dose3, GEM 3000 nM + ATRi 30 nM, in % (unit assumed)): 7.88
- Curve bottom [2]: 1.01
- Curve top [2]: 0.15
- Response (experiment ATRi, ATRi 3 nM, GEM 0 nM, in % (unit assumed)): 99.33
- Response (experiment ATRi, ATRi 10 nM, GEM 0 nM, in % (unit assumed)): 98.82
- Response (experiment ATRi, ATRi 30 nM, GEM 0 nM, in % (unit assumed)): 95.35
- Response (experiment ATRi, ATRi 100 nM, GEM 0 nM, in % (unit assumed)): 93.53
- Response (experiment ATRi, ATRi 300 nM, GEM 0 nM, in % (unit assumed)): 61.81
- Response (experiment ATRi, ATRi 1000 nM, GEM 0 nM, in % (unit assumed)): 21.20
- Response (experiment ATRi, ATRi 3000 nM, GEM 0 nM, in % (unit assumed)): 18.17
- Response (experiment ATRi, ATRi 10000 nM, GEM 0 nM, in % (unit assumed)): 11.75
- Curve bottom (experiment GEM+ATRi_dose1): 1.01
- Curve top (experiment GEM+ATRi_dose1): 0.12
- Curve bottom (experiment GEM+ATRi_dose2): 0.98
- Curve top (experiment GEM+ATRi_dose2): 0.12
- Curve bottom (experiment GEM+ATRi_dose3): 0.98
- Curve top (experiment GEM+ATRi_dose3): 0.13
